Laboratory results: US8912136B2, “Methods and compositions related to clot-binding compounds” (Sanford-Burnham Medical Research Institute, priority 2009, dated 2014)
Where no end group is shown, it is not given here. FAM = 5(6)-carboxyfluorescein; Ahx = NCCCCCC(=O)O

Columns and labels:
B16F1 melanomas = experiment: CREKA peptide homing in fibrinogen null mice and normal littermates; assay type: in vivo, mouse; conditions: intravenous
Description: Tumors contain a meshwork of clotted plasma proteins in the tumor stroma and the walls of vessels, but no such meshwork is detectable in normal tissues (Dvorak 1985; Abe 1999; Pilch 2006). The mesh-like pattern produced by the CREKA peptide in tumors prompted the study of whether clotted plasma proteins can be the target of this peptide. The peptide was tested in fibrinogen knockout mice, which lack the fibrin meshwork in their tumors. […] Its structure makes it an attractive peptide to use in nanoparticle targeting because, unlike other clot-binding peptides, which are cyclic 10 amino-acid peptides (Pilch 2006), CREKA is linear and contains only 5 amino acids. Moreover, the sulfhydryl group of the single cysteine residue is not required to provide binding activity and can be used to couple the peptide to other moieties.
Phage screening, tumors and peptides. In vivo screening of a peptide library with the general structure of CX7C (SEQ ID NO: 4), where C is cysteine and X is any amino acid, was carried out as described (Oh 2004) using 65- to 75-day-old transgenic MMTV PyMT mice (Hutchinson 2000). These mice express the polyoma virus middle T antigen (MT) under the transcriptional control of the mouse mammary tumor virus (MMTV), leading to the induction of multi-focal mammary tumors in 100% of carriers. […]

PyMT tumors = experiment: Tumor homing of intravenously injected fluorescent CREKA peptide; assay type: in vivo, mouse; conditions: intravenous; fluorescent dye at N-terminus; minutes to hours after the injection
Text: (§1) CREKA peptide. A tumor-homing peptide was used to construct targeted nanoparticles. […] The most frequently represented peptide sequence in the selected phage preparation was CREKA (cys-arg-glu-lys-ala; SEQ ID NO:1). The CREKA peptide was synthesized with a fluorescent dye attached to the N-terminus and the in vivo distribution of the peptide was studied in tumor-bearing mice. […] The peptide formed a distinct meshwork in the tumor stroma (FIG. 5), and it also highlighted the blood vessels in the tumors.
(§2) Phage screening, tumors and peptides. In vivo screening of a peptide library with the general structure of CX7C (SEQ ID NO: 4), where C is cysteine and X is any amino acid, was carried out as described (Oh 2004) using 65- to 75-day-old transgenic MMTV PyMT mice (Hutchinson 2000). These mice express the polyoma virus middle T antigen (MT) under the transcriptional control of the mouse mammary tumor virus (MMTV), leading to the induction of multi-focal mammary tumors in 100% of carriers. MDA-MB-435 tumors in nude mice and peptide synthesis have been described (Laakkonen 2002; Laakkonen 2004). B16F1 murine melanoma tumors were grown in fibrinogen null mice (Suh 1995) and their normal littermates and used when they reached 0.5-1 cm in size (Pilch 2006).

[1] = system: MDA-MB-435 human breast cancer xenografts; experiment: as above; assay type: in vivo, mouse
Text: as §1, §2

plasma clots = experiment: Binding to plasma clots (affinity); conditions: data not shown
[2] = system: orthotopic 22Rv1 xenograft tumors; experiment: In vivo homing of FAM-labeled CREKA and methylated CREKA peptides; set-up: species or system mouse
Description: Tumor accumulation of CREKA peptide and its N-methylated and C-methylated variants. The accumulation of N-methylated and C-methylated derivatives of CREKA was measured in mice bearing orthotropic 22Rv-1 xenograft tumors. The mice were intravenously injected with 200 μg of FAM-conjugated CREKA or methylated CREKA peptides derivatives. The peptides were allowed to circulate for 3 hrs. The mice were then perfused through the heart with PBS, and organs were collected and the fluorescence was measured under UV light. The fluorescence was analyzed with Image J software. Most N/C-methylated CREKA analogs produced stronger fluorescence compared to the unmodified CREKA. […] In FIG. 10B the enhanced fluorescence of CR(NMe)EKA is shown in the tumor compared to both CREKA and C(NMe)REKA peptide. It is shown that FAM-labeled CREKA peptide in which the glutamic acid is N-methylated accumulates in tumor tissue more strongly than unmodified CREKA.
Orthotopic prostate cancers were used when they reached 0.5-1 cm in size. Synthetic peptides labeled with fluorescein (approximately 200 μg) were intravenously injected into tumor-bearing mice and allowed to circulate for 15 minutes to 3 hours. The mice were perfused with PBS through the heart under anesthesia, and tissues were collected and observed under UV light (Illumatool Bright Light System LT-9900, Lightools Research, Encinitas, Calif.), and then processed for immunofluorescence or immunohistochemistry.

mouse plasma clots = experiment: Nanoparticle binding to plasma clots in vitro; conditions: FIG. 1D
Description: Phage and nanoparticle binding to clots. Phage binding to clotted plasma proteins was determined as described (Pilch 2006). CREKA-SPIO and control SPIO were added to freshly formed plasma clots in the presence or absence of free CREKA peptide. After 10 min incubation, the clots were washed 4 times in PBS, transferred to a new tube and digested in 100 μl concentrated nitric acid. The digested material was diluted in 2 ml distilled water and the iron concentration was determined using inductively coupled plasma-optical emission spectroscopy (ICP-OES, PerkinElmer, Norwalk, Conn.).

[3] = Peptide stability in vivo (NW-bound peptide recovered from blood, mass spectrometry); set-up: species or system mouse
Description: The peptides were conjugated with a linker that bridges the NW and a cysteine residue on the peptide, forming a disulfide with the OPSS group. The peptide-coated NW were injected into animals, and blood was collected 15 minutes and 3 hours after the injection. The plasma was separated and NW were collected by ultracentrifugation (100,000×g for 10 minutes at 4° C.). Proteins bound to the NW were removed by incubation with glycine-HCl, pH 2.8 on a magnetic LS columns (MACS separation columns, Miltenyi Biotec, Bergisch Gladbach, Germany). The peptides were cleaved from the NW by incubating with 10 mM dithiothreitol for 30 minutes at room temperature. The iron oxide was separated from the peptide by ultracentrifugation (100,000×g for 10 minutes at 4° C.) and the supernatant fractions containing the peptide were analyzed by matrix-assisted laser desorption ionization-time of flight (MALDI-TOF) mass spectrometry.

In the case of “cys-arg-glu-lys-ala ({FAM-Ahx}-CREKA; not fully specified; printed as cys-arg-glu-lys-ala)”, the “accumulation in tumors grown in fibrinogen null mice” value (B16F1 melanomas; fibrinogen null mice) is reported as “failed to accumulate”, the “accumulation in tumors grown in normal littermates” value (B16F1 melanomas; normal littermates of the null mice) is reported as “formed a brightly fluorescent meshwork” and the “CREKA peptide detection in tumors” value (PyMT tumors) is reported as “readily detectable”. The “whole animal imaging: elimination and liver accumulation” value ([1]; 30 μg Alexa Fluor 647-labeled CREKA, 6 hours) was “excreted into the urine and does not accumulate in the liver”, the “CREKA peptide detection in tumors” value ([1]; intravenous, fluorescent dye at N-terminus, minutes to hours after the injection) was “readily detectable” and the “CREKA peptide detection in normal tissues” value ([1]; intravenous, fluorescent peptide) was “essentially undetectable”. The Kd (plasma clots) was 6 µM, the “fluorescence in the tumors” value ([2]; 30 minutes after the injection) was “equally strong fluorescence” and the “decrease of tumor fluorescence” value ([2]; after 3 hours) was 70%. The “effect of free peptide on CREKA-SPIO binding to clotted plasma proteins” value (mouse plasma clots) was “inhibited”, the “peptide abundance in blood samples” value ([3]; after 15 minutes of circulation) was “equally abundant” and the “peptide in blood samples” value ([3]; after 3 hours) was “undetectable”.
